Read-outs that look alike come from different tables or passages of the source. Each block holds one compound with its values, some of them ahead of it. *1 amine or outer side, *2 acyl side, *3 side chain or, on linkers, in order; H or OH if unused. Where a SMILES comes first, the peptide text is derived from it. Bridges are numbered along the chain shown (N, C = ends). [ ]: non-standard residue; d: D form. The star is where a group is joined. hPhe(3-Cl-4-CF3) = N[C@@H](CCc1ccc(C(F)(F)F)c(Cl)c1)C(=O)O; X43 = CCCN([C@@H](Cc1ccccc1)C(=O)[*:2])[*:1]; NMeGly(cPent) = CN[C@H](C(=O)O)C1CCCC1; NMeD = CN[C@@H](CC(=O)O)C(=O)O; NMeL = CN[C@@H](CC(C)C)C(=O)O; Morpholide = C1CN(*)CCO1; Ac5c = NC1(C(=O)O)CCCC1; Sar = CNCC(=O)O
Legend:
[1] = biological target: GDP-bound NRAS wild-type protein (Homo sapiens, UniProt P01111); experiment: Binding to NRAS by surface plasmon resonance (SPR), Single Cycle Kinetics; conditions: for NRAS/KRAS (ratio of KD value for NRAS to KD value for KRAS): SPR, GDP-bound NRAS wild-type protein vs GDP-bound KRAS wild-type protein; for NRAS/KRAS (ratio of KD value with respect to GDP-bound NRAS wild-type protein to KD value with respect to KRAS): SPR KD ratio NRAS/KRAS, class symbols
Chain of GDP-bound NRAS wild-type protein (P01111 whole entry): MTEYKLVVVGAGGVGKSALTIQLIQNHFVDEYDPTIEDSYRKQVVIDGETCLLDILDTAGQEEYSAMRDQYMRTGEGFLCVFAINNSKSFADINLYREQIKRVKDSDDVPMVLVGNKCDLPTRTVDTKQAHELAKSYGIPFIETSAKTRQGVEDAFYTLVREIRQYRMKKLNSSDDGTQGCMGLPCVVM

[2] = biological target: GDP-bound HRAS wild-type protein (Homo sapiens, UniProt P01112); experiment: Binding to HRAS by surface plasmon resonance (SPR), Single Cycle Kinetics; conditions: for HRAS/KRAS (ratio of KD value for HRAS to KD value for KRAS): SPR, GDP-bound HRAS wild-type protein vs GDP-bound KRAS wild-type protein; for HRAS/KRAS (ratio of KD value with respect to GDP-bound HRAS wild-type protein to KD value with respect to KRAS): SPR KD ratio HRAS/KRAS, class symbols
Chain of GDP-bound HRAS wild-type protein (P01112 whole entry): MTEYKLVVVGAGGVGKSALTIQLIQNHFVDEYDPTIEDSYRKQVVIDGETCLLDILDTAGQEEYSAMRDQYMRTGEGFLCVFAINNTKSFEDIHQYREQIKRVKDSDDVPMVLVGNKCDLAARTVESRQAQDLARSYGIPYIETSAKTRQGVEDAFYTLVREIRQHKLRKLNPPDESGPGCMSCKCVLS

[3] = biological target: GDP-bound KRAS wild-type protein (Homo sapiens, UniProt P01116); experiment: Binding to KRAS by surface plasmon resonance (SPR), Single Cycle Kinetics; conditions: GDP-bound KRAS wild-type protein, read-out: KRAS KD
Chain of GDP-bound KRAS wild-type protein (P01116 whole entry): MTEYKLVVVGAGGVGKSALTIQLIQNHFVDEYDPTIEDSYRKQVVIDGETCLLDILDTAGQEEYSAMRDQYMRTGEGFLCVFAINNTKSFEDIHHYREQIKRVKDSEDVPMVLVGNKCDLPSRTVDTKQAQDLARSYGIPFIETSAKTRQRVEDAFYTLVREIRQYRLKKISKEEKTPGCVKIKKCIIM

[4] = SPR, Single Cycle Kinetics, 1:1 binding model
[5] = SPR Single Cycle Kinetics, 1:1 binding model

SMILES: CCO[C@@H]1C[C@H]2C(=O)NC3(CCC3)C(=O)N(C)[C@@H](C3CCCC3)C(=O)N(C)[C@H](C(=O)N(C)CCOC)CC(=O)N(C)[C@@H](CC)C(=O)N[C@@H]([C@@H](C)CC)C(=O)N(C)CC(=O)N(C)[C@H]3C/C=C\CCN(C3=O)[C@@H](Cc3ccc(C(F)(F)F)cc3)C(=O)N(C)CC(=O)N[C@@H](CCc3ccc4sccc4c3)C(=O)N2C1 [PP1322]
NRAS/KRAS (ratio of KD value for NRAS to KD value for KRAS) ([1]; KD ratio class): A (a compound having 10 or more and less than 20 is denoted as A)
HRAS/KRAS (ratio of KD value for HRAS to KD value for KRAS) ([2]; KD ratio class): A (a compound having 10 or more and less than 20 is denoted as A)
Kd [3, 4]: 0.59 nM

SMILES: CCO[C@@H]1C[C@H]2C(=O)NC3(CCC3)C(=O)N(C)[C@@H](C(CC)CC)C(=O)N(C)[C@H](C(=O)N3CCOCC3)CC(=O)N(C)[C@@H](CC(C)C)C(=O)N[C@@H]([C@@H](C)CC)C(=O)N(C)CC(=O)N(C)[C@H]3CCCCN(C3=O)[C@@H](Cc3ccc(C(F)(F)F)cc3)C(=O)N(C)CC(=O)N[C@@H](CCc3cc(F)c(C(F)(F)F)c(F)c3)C(=O)N2C1 [PP0811]
NRAS/KRAS (ratio of KD value for NRAS to KD value for KRAS) [1]: B (a compound having 3 or more and less than 10 is denoted as B)
HRAS/KRAS (ratio of KD value for HRAS to KD value for KRAS) [2]: B (a compound having 3 or more and less than 10 is denoted as B)
Kd ([3]; SPR, Single Cycle Kinetics): 0.083 nM

SMILES: CCCN1C(=O)CN(C)C(=O)CN(C)C(=O)[C@H]([C@@H](C)CC)NC(=O)[C@H](CC(C)C)N(C)C(=O)C[C@@H](C(=O)N2CCOCC2)N(C)C(=O)[C@H](C2CCCC2)N(C)C(=O)C2(CCCC2)NC(=O)[C@@H]2CCCN2C(=O)[C@H](CCc2ccc(C(F)(F)F)c(Cl)c2)NC(=O)CN(C)C(=O)[C@@H]1Cc1ccccc1 [PP0211] ([NMeL]I[Sar][Sar][X43][Sar][hPhe(3-Cl-4-CF3)]P[Ac5c][NMeGly(cPent)][NMeD]-Morpholide; lactam N-11)
NRAS/KRAS (ratio of KD value for NRAS to KD value for KRAS) [1]: B (a compound having 3 or more and less than 10 is denoted as B)
HRAS/KRAS (ratio of KD value for HRAS to KD value for KRAS) [2]: C (A compound having a KD ratio of 0.1 or more and less than 3 is denoted as C)
Kd [3, 5]: 0.27 nM

More lines, main results first:

Kd [3, 4]: 0.069 nM
SMILES: CCC[C@H]1C(=O)N[C@@H]([C@@H](C)CC)C(=O)N(C)CC(=O)N(C)[C@H]2C/C=C\CCN(C2=O)[C@@H](Cc2ccc(C(F)(F)F)cc2)C(=O)N(C)CC(=O)N[C@@H](CCc2ccc(C(F)(F)F)c(OC)c2)C(=O)N2C[C@H](OCC)C[C@H]2C(=O)NC2(CC(C)(C)C2)C(=O)N(C)[C@@H](C2CCCC2)C(=O)N(C)[C@H](C(=O)N(C)C)CC(=O)N1C [PP1560]
NRAS/KRAS (ratio of KD value for NRAS to KD value for KRAS) ([1]; KD ratio class): A (a compound having 10 or more and less than 20 is denoted as A)
HRAS/KRAS (ratio of KD value for HRAS to KD value for KRAS) ([2]; KD ratio class): B (a compound having 3 or more and less than 10 is denoted as B)

Kd ([3]; SPR, Single Cycle Kinetics): 0.29 nM
SMILES: CCO[C@@H]1C[C@H]2C(=O)NC3(CC(C)(C)C3)C(=O)N(C)[C@@H](C(CC)CC)C(=O)N(C)[C@H](C(=O)N(C)C)CC(=O)N(C)[C@@H](CC3CCC3)C(=O)N[C@@H]([C@@H](C)CC)C(=O)N(C)CC(=O)N(C)[C@H]3C/C=C\CCN(C3=O)[C@@H](Cc3ccc(C)cc3)C(=O)N(C)CC(=O)N[C@@H](CCc3cc(F)c(C(F)(F)F)c(F)c3)C(=O)N2C1 [PP2151]
NRAS/KRAS (ratio of KD value for NRAS to KD value for KRAS) [1]: A (a compound having 10 or more and less than 20 is denoted as A)
HRAS/KRAS (ratio of KD value for HRAS to KD value for KRAS) [2]: A (a compound having 10 or more and less than 20 is denoted as A)

Kd [3, 5]: 0.36 nM
SMILES: CCC[C@H]1C(=O)N[C@@H]([C@@H](C)CC)C(=O)N(C)CC(=O)N(C)[C@H]2C/C=C\CCN(C2=O)[C@@H](Cc2ccc(C)cc2)C(=O)N(C)CC(=O)N[C@@H](CCc2ccc(Cl)c(C(F)(F)F)c2)C(=O)N2C[C@H](OCC)C[C@H]2C(=O)NC2(CC(C)(C)C2)C(=O)N(C)[C@@H](C(CC)CC)C(=O)N(C)[C@H](C(=O)N(C)C)CC(=O)N1C [PP2787]
NRAS/KRAS (ratio of KD value with respect to GDP-bound NRAS wild-type protein to KD value with respect to KRAS) [1]: AA (a compound having 20 or more is denoted as AA)
HRAS/KRAS (ratio of KD value with respect to GDP-bound HRAS wild-type protein to KD value with respect to KRAS) [2]: A (a compound having 10 or more and less than 20 is denoted as A)

Kd [3, 5]: 0.21 nM
SMILES: CCO[C@@H]1C[C@H]2C(=O)NC3(CCCC3)C(=O)N(C)[C@@H](C3CCCC3)C(=O)N(C)[C@H](C(=O)N(C)C)CC(=O)N(C)[C@@H](CC(C)C)C(=O)N[C@@H]([C@@H](C)CC)C(=O)N(C)CC(=O)N(C)[C@H]3C/C=C\CCN(C3=O)[C@@H](Cc3ccc(C(F)(F)F)cc3)C(=O)N(C)CC(=O)N[C@@H](CCc3ccc(Cl)c(Cl)c3)C(=O)N2C1 [PP2837]
NRAS/KRAS (ratio of KD value with respect to GDP-bound NRAS wild-type protein to KD value with respect to KRAS) [1]: AA (a compound having 20 or more is denoted as AA)
HRAS/KRAS (ratio of KD value with respect to GDP-bound HRAS wild-type protein to KD value with respect to KRAS) [2]: A (a compound having 10 or more and less than 20 is denoted as A)

Source: patent US20240158446A1, “CYCLIC COMPOUND HAVING SELECTIVE INHIBITORY ACTION ON KRAS OVER HRAS AND NRAS” (CHUGAI SEIYAKU KABUSHIKI KAISHA, priority 2021, published 2024)
